Assay: Human HepG2 cell viability assay in 384 well format
Format: toxicity, cell-based
Parameters: dose 125 nL, time 70.5 hour; concentration not given beside the values
Details: HepG2 cells, read-out: Inhibition

| Structure (SMILES) | cytotoxicity at 70.5 h |
| --- | --- |
| CC(C)CCNC(=O)c1cccnc1Oc1cccnc1 | -6.47% |
| COc1ccc(C(CO)NC(=O)Nc2cccc(F)c2)cc1 (configuration not stated) | -4.24% |
| COc1cc(C)nc(N2CCN(C(=O)CCc3ccncc3)CC2)n1 | 28% |
| Cc1cc(C)cc(CNCCS(=O)(=O)N2CCOCC2)c1 | 33.6% |
| CCOC(C)c1nc(CN2CCC(NC(C)C)CC2)cs1 (configuration not stated) | -2.82% |
| N#Cc1ccccc1OCCN1CCCC(c2noc(C3CC3)n2)C1 (configuration not stated) | 3.57% |
| O=S(=O)(CCNCc1ccc(Cl)cc1)N1CCOCC1 | 15.5% |
| O=C(CC1CCCN1S(=O)(=O)N1CCCCC1)c1cccs1 (configuration not stated) | -3.32% |
| CSc1ccc(CNCCS(=O)(=O)N2CCOCC2)cc1 | -3.35% |
| CCN1CCC(NC(=O)CN2CCCC2Cn2cccn2)CC1 (configuration not stated) | 32.9% |
| O=C(CN1CCCC1Cn1cccn1)NC1CCN(C2CC2)CC1 (configuration not stated) | -2.29% |
| COCCn1cc(C(=O)N2CCCC2c2cnn(C)c2)ccc1=O (configuration not stated) | -6.63% |
| Cc1ccccc1-c1noc(CN2CCC(c3ccn[nH]3)CC2)n1 | 30.9% |
| c1cnn(CC2CN(Cc3csc(-c4ccsc4)n3)CCO2)c1 (configuration not stated) | -6.82% |
| COC(C)c1nc(CN2CCNCC2)cs1 (configuration not stated) | 0.111% |
| CCOC(C)c1nc(CN2CCN(c3ncc(C)cn3)CC2)cs1 (configuration not stated) | -5.09% |
| COCc1noc(C2(c3cccc(Cl)c3)CCOCC2)n1 | 26.5% |
| Cc1ccc(S(=O)(=O)N2CCC(N3CCCCC3)CC2)cc1C | 5.06% |
| CCNC(=O)COc1ccc(C(=O)NC(C)CCc2ccco2)cc1 (configuration not stated) | 2.41% |
| CC1CCN(CCCNC(=O)Nc2cc3c(cc2Br)OCCO3)CC1 | -0.325% |
| Cc1csc(CNC(=O)NCC(O)c2ccccc2)n1 (configuration not stated) | -4.81% |
| Cc1ccc(NC(=O)NCC2(N3CCOCC3)CCSC2)c(C)c1 (configuration not stated) | 8.25% |
| NC(=O)COc1ccc(C(=O)NCCc2ccco2)cc1 | -5.22% |
| Cc1ccc(C(=O)CN2C(=O)c3ccccc3CS2(=O)=O)c(C)c1 | -10.2% |

| Structure (SMILES) | cytotoxicity at 70.5 h |
| --- | --- |
| O=C(NCc1nnc2n1CCCCC2)N(Cc1ccncc1)C1CC1 | -4.16% |
| C=C(C)CN1CCC(NC(=O)NCCc2ccc(N(C)C)cc2)CC1 | 12.7% |
| Cn1cc(CNC(=O)NCCOc2ccc(F)c(F)c2)cn1 | -0.0625% |
| N#Cc1cc(NC(=O)c2cc[nH]n2)ccc1N1CCC(O)CC1 | 9.29% |
| COc1cc(C)ccc1OCC(=O)NS(=O)(=O)c1cc(F)ccc1F | -4.22% |
| Fc1ccc(OCC2CCCO2)c(NCc2cn3cccnc3n2)c1 (configuration not stated) | 8.09% |
| COCc1noc(C2(c3ccc(F)cc3)CCC2)n1 | -0.0433% |
| Cc1ccc(S(=O)(=O)N2CCCCC(N3CCN(C)CC3)C2)cc1F (configuration not stated) | -5.17% |
| CN(Cc1cnn(C)c1)Cc1nc(Cc2cccc(Cl)c2)no1 | -7.96% |
| COCCSCC(=O)NC1(c2cccc(Br)c2)CC1 | -2.67% |
| Cc1cc(C(=O)NCc2ccccc2CN(C)Cc2ccco2)on1 | 9.59% |
| CCN1CCN(c2ccc(F)cc2C(C)NCc2ccccn2)CC1 (configuration not stated) | 13.7% |
| COc1ccc(OC)c(C(C)NC(=O)Nc2nnc(C)s2)c1 (configuration not stated) | -5.29% |
| COc1ccc(C(C)NC(=O)Nc2nnc(C)s2)c(OC)c1 (configuration not stated) | -4.87% |
| CC(C)(C)OC(=O)NCCNC(=O)c1cnc(-c2ccccc2)nc1 | -0.668% |
| CN(C)C(=O)CCNC(=O)c1cnc(-c2ccccc2)nc1 | -5.51% |
| CC1CN(C(=O)c2ccn(C)c(=O)c2)c2ccccc2NC1=O (configuration not stated) | -2.71% |
| CN(CCc1nccs1)C(=O)C1(C#N)CCCCC1 | 0.343% |
| Cc1cc(F)ccc1N1CCCC(NC2CCSCC2)C1=O (configuration not stated) | -2.24% |
| O=C(NCCC1CCN(CC(F)(F)F)CC1)C1CCCO1 (configuration not stated) | -1.77% |
| CCS(=O)(=O)NC1CCCN(c2ccc(F)cc2C)C1=O (configuration not stated) | -3.11% |
| CN(CC(=O)N(CCC#N)c1ccccc1)C1CCc2ccccc21 (configuration not stated) | 5.13% |
| Cc1ccc(CCC(C)NC2CCN(C(N)=O)CC2)cc1 (configuration not stated) | -1.06% |
